Target: T1, hGPR120 (Homo sapiens, UniProt Q5NUL3)
T1 construct: expressed in transfected cells; host or cells: CHO-K1
T1 sequence (Q5NUL3 1-361): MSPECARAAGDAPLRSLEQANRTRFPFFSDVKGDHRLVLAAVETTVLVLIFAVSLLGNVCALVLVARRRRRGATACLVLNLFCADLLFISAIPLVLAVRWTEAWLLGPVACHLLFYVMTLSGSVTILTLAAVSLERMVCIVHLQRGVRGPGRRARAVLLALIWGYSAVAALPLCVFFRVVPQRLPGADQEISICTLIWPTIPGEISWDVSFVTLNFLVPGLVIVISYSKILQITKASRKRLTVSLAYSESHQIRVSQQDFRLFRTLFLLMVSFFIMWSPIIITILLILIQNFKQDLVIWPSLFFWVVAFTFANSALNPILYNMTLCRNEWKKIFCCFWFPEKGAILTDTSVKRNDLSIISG
Assay: Measurement of Activity of GPR120 Agonist (Cell-Based Assay), Calcium 5 dye fluorescence
Conditions: CHO-K1 cells expressing Ga16 and hGPR120
In short: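 Fluorescence increase (Ex 485 nm, Em 525 nm) after agonist addition was calculated as relative percent of the 1% DMSO-only signal. Cells were CHO-K1 stably carrying Gα16 plus human GPR120, dye-loaded for 1 h after overnight (18 h) culture.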

SMILES	EC50 [nM]
O=C(O)CCCOc1c(F)cc(-c2cccc(OC3CCC3)c2)cc1Cl [Example 405, 4-(5-chloro-3′-cyclobutoxy-3-fluoro-biphenyl-4-yloxy)-butyric acid]	< 200
CC(CCCC(=O)O)c1c(F)cc(-c2cccc(OC3CCC3)c2)cc1F (stereo not drawn) [Example 410, 5-(3′-cyclobutoxy-3,5-difluoro-biphenyl-4-yl)-hexanoic acid]	< 200
CC(C)COc1nc(-c2cc(F)c(N3CCC(CC(=O)O)C3)c(F)c2)ncc1F (stereo not drawn) [Example 594, {1-[2,6-difluoro-4-(5-fluoro-4-isobutoxy-pyrimidin-2-yl)-phenyl]-pyrrolidin-3-yl}-acetic acid]	200 to 2000
CC(C)CCOc1ccnc(-c2cc(F)c(N3CCC(CC(=O)O)CC3)c(F)c2)n1 [Example 599, (1-{2,6-difluoro-4-[4-(3-methyl-butoxy)-pyrimidin-2-yl]-phenyl}-piperidin-4-yl)-acetic acid]	200 to 2000
O=C(O)CCc1ccc2cc(-c3cccc(OC4CCC4)n3)ccc2c1 [Example 148, 3-[6-(6-cyclobutoxy-pyridin-2-yl)-naphthalen-2-yl]-propanoic acid]	200 to 2000
O=C(O)CC1CCN(c2c(F)cc(-c3cncc(OC4CCC4)n3)cc2F)C1 (stereo not drawn) [Example 578, {1-[4-(6-cyclobutoxy-pyrazin-2-yl)-2,6-difluoro-phenyl]-pyrrolidin-3-yll}-acetic acid]	< 200
O=C(O)CCc1ccc2cc(-c3cccc(Oc4ccccc4)n3)ccc2c1 [Example 141, 3-[6-(6-phenoxy-pyridin-2-yl)-naphthalen-2-yl]-propanoic acid]	< 200
CC(CCCC(=O)O)c1c(F)cc(-c2cccc(OC3CCC3)n2)cc1F (stereo not drawn) [Example 41, 5-[4-(6-cyclobutoxy-2-pyridyl)-2,6-difluoro-phenyl]hexanoic acid]	< 200
O=C(O)CCCOc1c(F)cc(-c2cncc(OC3CCC3)n2)cc1Cl [Example 430, 4-[2-chloro-4-(6-cyclobutoxy-pyrazin-2-yl)-6-fluoro-phenoxy]-butyric acid]	< 200
O=C(O)CCCOc1c(F)cc(-c2cncc(OC3CCC3)n2)cc1F [Example 398, 4-[4-[6-(cyclobutoxy)pyrazin-2-yl]-2,6-difluoro-phenoxy]butanoic acid]	< 200
O=C(O)CCC1CCc2cc(-c3cccnc3SC3CCCC3)ccc2O1 (stereo not drawn) [Example 280, 3-[6-(2-cyclopentylsulfanyl-pyridin-3-yl)-chroman-2-yl]-propionic acid]	< 200
O=C(O)CCCOc1c(F)cc(-n2ncc3ccc(OC4CCC4)cc32)cc1Cl [Example 483, 4-[2-chloro-4-[6-(cyclobutoxy)indazol-1-yl]-6-fluoro-phenoxy]butanoic acid]	< 200
Cc1cc(OC2CCC2)nc(-c2cc(F)c(OCCCC(=O)O)c(Cl)c2)n1 [Example 391, 4-[2-chloro-4-[4-(cyclobutoxy)-6-methyl-pyrimidin-2-yl]-6-fluoro-phenoxy]butanoic acid]	< 200
CC(C)(CCCC(=O)O)c1ccc(-c2cccnc2OC2CCCC2)cc1 [Example 160, 5-[4-(2-cyclopentyloxy-pyridin-3-yl)-phenyl]-5-methyl-hexanoic acid]	< 200
CN(CCCC(=O)O)c1c(F)cc(-n2ncc3ccc(OC4CCC4)cc32)cc1F [Example 492, 4-[4-[6-(cyclobutoxy)indazol-1-yl]-2,6-difluoro-N-methyl-anilino]butanoic acid]	< 200
Cc1cc(OC2CCC2)nc(-c2cc(F)c(OCC3CC3C(=O)O)c(Cl)c2)n1 (stereo not drawn) [Example 553, 2-[2-chloro-4-(4-cyclobutoxy-6-methyl-pyrimidin-2-yl)-6-fluoro-phenoxymethyl]-cyclopropanecarboxylic acid]	200 to 2000
CC(CCCC(=O)O)c1c(F)cc(-c2cccc(OC3CCCC3)n2)cc1F (stereo not drawn) [Example 56, 5-[4-(6-cyclopentoxy-2-pyridyl)-2,6-difluoro-phenyl]hexanoic acid]	< 200

Now from value to compound:

EC50 [nM]	SMILES
< 200	O=C(O)CCCC(F)(F)c1ccc(-c2cccnc2OCC2CC2)cc1 [Example 181, 5-[4-(2-cyclopropylmethoxy-pyridin-3-yl)-phenyl]-5,5-difluoro-pentanoic acid]
< 200	CC(CCCC(=O)O)c1c(F)cc(-c2cccc(OCC3CC3)c2)cc1F (stereo not drawn) [Example 413, 5-(3′-cyclopropylmethoxy-3,5-difluoro-biphenyl-4-yl)-hexanoic acid]
< 200	CCCOc1ccnc(-c2cc(F)c(N3CCC(CC(=O)O)CC3)c(F)c2)n1 [Example 347, 2-[1-[2,6-difluoro-4-(4-propoxypyrimidin-2-yl)phenyl]-4-piperidyl]acetic acid]
2000 to 20000	Cc1cc(Oc2ccc(C(F)(F)F)cc2)nc(-c2cc(F)c(N3CCC(CC(=O)O)CC3)c(F)c2)n1 [Example 612, 2-[1-[2,6-difluoro-4-[4-methyl-6-[4-(trifluoromethyl)phenoxy]pyrimidin-2-yl]phenyl]-4-piperidyl]acetic acid]
< 200	CC(CCCC(=O)O)c1c(F)cc(-c2cccnc2OCC2CC2)cc1F (stereo not drawn) [Example 60, 5-[4-(2-cyclopropylmethoxy-3-pyridyl)-2,6-difluoro-phenyl]hexanoic acid]
> 20000	O=C(O)CC1CCN(c2c(F)cc(-c3ncnc4c3CCC4)cc2F)CC1 [Example 382, 2-[1-[4-(6,7-dihydro-5H-cyclopenta[d]pyrimidin-4-yl)-2,6-difluoro-phenyl]-4-piperidyl]acetic acid]
< 200	CC(C)Oc1cncc(-c2cc(F)c(N3CCC(CC(=O)O)CC3)c(F)c2)n1 [Example 339, 2-[1-[2,6-difluoro-4-(6-isopropoxypyrazin-2-yl)phenyl]-4-piperidyl]acetic acid]
< 200	CCSc1ncccc1-c1cc(F)c(N(C)CCCC(=O)O)c(F)c1 [Example 208, 4-{[4-(2-ethylsulfanyl-pyridin-3-yl)-2,6-difluoro-phenyl]-methyl-amino}-butyric acid]
< 200	Cc1cc(OCC2CC2)nc(-c2cc(F)c(OCCCC(=O)O)c(F)c2)n1 [Example 432, 4-[4-(4-cyclopropylmethoxy-6-methyl-pyrimidin-2-yl)-2,6-difluoro-phenoxy]-butyric acid]
< 200	O=C(O)CCCOc1c(F)cc(-n2ccc3ccc(OCC4CC4)cc32)cc1F [Example 474, 4-[4-[6-(cyclopropylmethoxy)indol-1-yl]-2,6-difluoro-phenoxy]butanoic acid]
< 200	O=C(O)CCc1ccc2cc(-c3cccnc3OC3CCCC3)ccc2c1 [Example 150, 3-[6-(2-cyclopentyloxy-pyridin-3-yl)-naphthalen-2-yl]-propanoic acid]
< 200	O=C(O)CCCCc1ccc(-c2cccnc2SC2CCCC2)cc1F [Example 248, 5-[4-(2-cyclopentylsulfanyl-pyridin-3-yl)-2-fluoro-phenyl]-pentanoic acid]
2000 to 20000	CCCOc1cc(C(F)(F)F)nc(-c2cc(F)c(N3CCC(CC(=O)O)CC3)c(F)c2)n1 [Example 618, {1-[2,6-difluoro-4-(4-propoxy-6-trifluoromethyl-pyrimidin-2-yl)-phenyl]-piperidin-4-yl}-acetic acid]
< 200	CC(CCCC(=O)O)c1c(F)cc(-c2cccnc2OC2CCOCC2)cc1F (stereo not drawn) [Example 231, 5-{2,6-difluoro-4-[2-(tetrahydro-pyran-4-yloxy)-pyridin-3-yl]-phenyl}-hexanoic acid]
2000 to 20000	CCN(CC)c1cncc(-c2cc(F)c(N3CCC(CC(=O)O)CC3)c(F)c2)n1 [Example 355, 2-[1-[4-[6-(diethylamino)pyrazin-2-yl]-2,6-difluoro-phenyl]-4-piperidyl]acetic acid]
< 200	O=C(O)CCCC1(c2c(F)cc(-c3cccnc3OC3CCCC3)cc2F)CC1 [Example 166, 4-{1-[4-(2-cyclopentyloxy-pyridin-3-yl)-2,6-difluoro-phenyl]-cyclopropyl}-butyric acid]
200 to 2000	Cc1nc(COCC2CC2)c(-c2cc(F)c(N3CCC(CC(=O)O)CC3)c(F)c2)s1 [Example 570, {1-[4-(4-cyclopropylmethoxymethyl-2-methyl-thiazol-5-yl)-2,6-difluoro-phenyl]-piperidin-4-yl}-acetic acid]
200 to 2000	CC(C)Sc1ncccc1-c1ccc2cc(OCCCC(=O)O)ccc2c1 [Example 5, 4-[6-(2-isopropylsulfanyl-pyridin-3-yl)-naphthalen-2-yloxy]-butyric acid]
200 to 2000	O=C(O)CCCC1(c2c(F)cc(-c3cccnc3SC3CCC3)cc2F)CC1 [Example 167, 4-{1-[4-(2-cyclobutylsulfanyl-pyridin-3-yl)-2,6-difluoro-phenyl]-cyclopropyl}-butyric acid]
200 to 2000	O=C(O)CC1CCN(c2c(F)cc(-c3cncc(NC4CCCC4)n3)cc2F)C1 (stereo not drawn) [Example 504, 2-{1-[2,6-difluoro-4-(6-cyclopentylamino-pyrazin-2-yl)phenyl]pyrrolidin-3-yl}acetic acid]
2000 to 20000	CC(C)Sc1ncccc1-c1cc(F)c(-n2cc(CC(=O)O)cn2)c(F)c1 [Example 122, 2-[1-[2,6-difluoro-4-(2-isopropylsulfanyl-3-pyridyl)phenyl]pyrazol-4-yl]acetic acid]
< 200	O=C(O)CCCOc1c(F)cc(-c2occc2COCC2CC2)cc1F [Example 387, 4-[4-[3-(cyclopropylmethoxymethyl)-2-furyl]-2,6-difluoro-phenoxy]butanoic acid]

— patent US11261186B2, “Biaryl derivative as GPR120 agonist” (LG CHEM, LTD., priority 2014, dated 2022)
